Reference: US9593108B2, “Compounds and methods for antiviral treatment” (PTC Therapeutics, Inc., priority 2009, dated 2017)

Legend:
[1] = tested on: HCV replicon RNA (GenBank Accession No. AJ242654); test: HCV Replicon Assay (replicon RNA reduction and/or Fluc reporter signal); format: cell-based, Hepatitis C virus; conditions: Hepatitis C virus, 72 h, replicon-containing cells cultured with test compound for up to 3 days
In short: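 IC50 values mostly reflect the drop in replicon RNA, though Fluc reporter signal may also be used. Compound incubated with cells carrying the bicistronic replicon for as long as 3 days; interferon served as positive control.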

Structure (SMILES) | melting point | IC50 [1]
COc1ccnc(-n2c(-c3ccc(S(=O)(=O)N[C@@H](C)C(F)(F)F)cn3)c(C#N)c3cc(C(F)(F)F)cnc32)n1 [Cpd 333, 6-[3-cyano-1-(4-methoxypyrimidin-2-yl)-5-(trifluoromethyl)-1H-pyrrolo[2,3-b]pyridin-2-yl]-N-[(2S)-1,1,1-trifluoropropan-2-yl]pyridine-3-sulfonamide] | 209 to 211 °C | 2000 to 5000 nM
CC(C)(C)NS(=O)(=O)c1ccc(-c2c(C#N)c3cc(C(F)(F)F)cnc3n2-c2ncccn2)cc1 [Cpd 334, N-tert-butyl-4-[3-cyano-1-(pyrimidin-2-yl)-5-(trifluoromethyl)-1H-pyrrolo[2,3-b]pyridin-2-yl]benzenesulfonamide] | 228 to 230 °C | 2000 to 5000 nM
CC(C)(C)NS(=O)(=O)c1ccc(-c2c(C#N)c3cc(C(F)(F)F)cnc3n2-c2cnccn2)cc1 [Cpd 335, N-tert-butyl-4-[3-cyano-1-(pyrazin-2-yl)-5-(trifluoromethyl)-1H-pyrrolo[2,3-b]pyridin-2-yl]benzenesulfonamide] | 190 to 192 °C | < 500 nM
CC(C)(C)NS(=O)(=O)c1ccc(-c2c(C#N)c3cc(C(F)(F)F)cnc3n2-c2ccccn2)cc1 [Cpd 336, N-tert-butyl-4-[3-cyano-1-(pyridin-2-yl)-5-(trifluoromethyl)-1H-pyrrolo[2,3-b]pyridin-2-yl]benzenesulfonamide] | 227 to 230 °C | 500 to 2000 nM
CC(C)(C)NS(=O)(=O)c1ccc(-c2c(C#N)c3cc(C(F)(F)F)cnc3n2-c2ccccc2)cc1 [Cpd 337, N-tert-butyl-4-[3-cyano-1-phenyl-5-(trifluoromethyl)-1H-pyrrolo[2,3-b]pyridin-2-yl]benzenesulfonamide] | 206 to 208 °C | 500 to 2000 nM
Cc1nc(-c2c(C#N)c3cc(C(F)(F)F)cnc3n2C2CCC2)ccc1S(=O)(=O)N[C@@H](C)C(F)(F)F [Cpd 338, 6-[3-cyano-1-cyclobutyl-5-(trifluoromethyl)-1H-pyrrolo[2,3-b]pyridin-2-yl]-2-methyl-N-[(2S)-1,1,1-trifluoropropan-2-yl]pyridine-3-sulfonamide] | 162 to 165 °C | < 500 nM
C[C@H](NS(=O)(=O)c1ccc(-c2c(C#N)c3cc(Br)cnc3n2-c2ncccn2)nc1)C(F)(F)F [Cpd 339, 6-[5-bromo-3-cyano-1-(pyrimidin-2-yl)-1H-pyrrolo[2,3-b]pyridin-2-yl]-N-[(2S)-1,1,1-trifluoropropan-2-yl]pyridine-3-sulfonamide] | 223 to 225 °C | < 500 nM
C[C@H](NS(=O)(=O)c1ccc(-c2c(C#N)c3cc(Br)cnc3n2-c2cnccn2)nc1)C(F)(F)F [Cpd 340, 6-[5-bromo-3-cyano-1-(pyrazin-2-yl)-1H-pyrrolo[2,3-b]pyridin-2-yl]-N-[(2S)-1,1,1-trifluoropropan-2-yl]pyridine-3-sulfonamide] | 247 to 248 °C | < 500 nM
Cc1cnc2c(c1)c(C(N)=O)c(-c1ccc(S(=O)(=O)NC(C)(C)C(F)(F)F)cc1)n2C1CCC1 [Cpd 341, 1-cyclobutyl-5-methyl-2-{4-[(1,1,1-trifluoro-2-methylpropan-2-yl)sulfamoyl]phenyl}-1H-pyrrolo[2,3-b]pyridine-3-carboxamide] | 235 to 237 °C | < 500 nM
C[C@H](NS(=O)(=O)c1ccc(-c2c(C#N)c3cc(C4CC4)cnc3n2-c2cnccn2)nc1)C(F)(F)F [Cpd 344, 6-[3-cyano-5-cyclopropyl-1-(pyrazin-2-yl)-1H-pyrrolo[2,3-b]pyridin-2-yl]-N-[(2S)-1,1,1-trifluoropropan-2-yl]pyridine-3-sulfonamide] | 219 to 221 °C | < 500 nM
Cc1cnc2c(c1)c(C#N)c(-c1ccc(S(=O)(=O)N[C@@H](C)C(F)(F)F)cn1)n2-c1ncccn1 [Cpd 345, 6-[3-cyano-5-methyl-1-(pyrimidin-2-yl)-1H-pyrrolo[2,3-b]pyridin-2-yl]-N-[(2S)-1,1,1-trifluoropropan-2-yl]pyridine-3-sulfonamide] | 221 to 223 °C | < 500 nM
Cc1cnc2c(c1)c(C#N)c(-c1ccc(S(=O)(=O)N[C@@H](C)C(F)(F)F)cn1)n2-c1ccccn1 [Cpd 346, 6-[3-cyano-5-methyl-1-(pyridin-2-yl)-1H-pyrrolo[2,3-b]pyridin-2-yl]-N-[(2S)-1,1,1-trifluoropropan-2-yl]pyridine-3-sulfonamide] | 165 to 167 °C | < 500 nM
Cc1cnc2c(c1)c(C#N)c(-c1ccc(S(=O)(=O)N[C@@H](C)C(F)(F)F)cn1)n2-c1cccnc1 [Cpd 347, 6-[3-cyano-5-methyl-1-(pyridin-3-yl)-1H-pyrrolo[2,3-b]pyridin-2-yl]-N-[(2S)-1,1,1-trifluoropropan-2-yl]pyridine-3-sulfonamide] | 205 to 207 °C | < 500 nM
Cc1cnc2c(c1)c(C#N)c(-c1ccc(S(=O)(=O)N[C@@H](C)C(F)(F)F)cn1)n2-c1ccccc1 [Cpd 348, 6-(3-cyano-5-methyl-1-phenyl-1H-pyrrolo[2,3-b]pyridin-2-yl)-N-[(2S)-1,1,1-trifluoropropan-2-yl]pyridine-3-sulfonamide] | 220 to 222 °C | < 500 nM
Cc1cnc2c(c1)c(C#N)c(-c1ccc(S(=O)(=O)N[C@@H](C)C(F)(F)F)cn1)n2-c1cnccn1 [Cpd 349, 6-[3-cyano-5-methyl-1-(pyrazin-2-yl)-1H-pyrrolo[2,3-b]pyridin-2-yl]-N-[(2S)-1,1,1-trifluoropropan-2-yl]pyridine-3-sulfonamide] | 220 to 222 °C | < 500 nM
CN(Cc1ccccc1)c1cnc2c(c1)c(C#N)c(-c1ccc(S(=O)(=O)NC(C)(C)C)cc1)n2C1CCC1 [Cpd 351, 4-{5-[benzyl(methyl)amino]-3-cyano-1-cyclobutyl-1H-pyrrolo[2,3-b]pyridin-2-yl}-N-tert-butylbenzenesulfonamide] | 168 to 171 °C | 2000 to 5000 nM
Cc1ccnc(-n2c(-c3ccc(S(=O)(=O)N[C@@H](C)C(F)(F)F)cn3)c(C#N)c3cc(C(F)(F)F)cnc32)n1 [Cpd 355, 6-[3-cyano-1-(4-methylpyrimidin-2-yl)-5-(trifluoromethyl)-1H-pyrrolo[2,3-b]pyridin-2-yl]-N-[(2S)-1,1,1-trifluoropropan-2-yl]pyridine-3-sulfonamide] | 176 to 180 °C | < 500 nM
C[C@H](NS(=O)(=O)c1ccc(-c2c(C(N)=O)c3cc(F)cnc3n2C2CCC2)nc1)C(F)(F)F [Cpd 356, 1-cyclobutyl-5-fluoro-2-(5-{[(2S)-1,1,1-trifluoropropan-2-yl]sulfamoyl}pyridin-2-yl)-1H-pyrrolo[2,3-b]pyridine-3-carboxamide] | 223 to 225 °C | < 500 nM
COc1cnc2c(c1)c(C(N)=O)c(-c1ccc(S(=O)(=O)N[C@@H](C)C(F)(F)F)cn1)n2C1CCCC1 [Cpd 357, 1-cyclopentyl-5-methoxy-2-(5-{[(2S)-1,1,1-trifluoropropan-2-yl]sulfamoyl}pyridin-2-yl)-1H-pyrrolo[2,3-b]pyridine-3-carboxamide] | 263 to 264 °C | < 500 nM
CSc1cnc2c(c1)c(C(N)=O)c(-c1ccc(NS(=O)(=O)C(C)C)cc1)n2C1CCCC1 [Cpd 358, 1-cyclopentyl-5-(methylsulfanyl)-2-{4-[(propan-2-ylsulfonyl)amino]phenyl}-1H-pyrrolo[2,3-b]pyridine-3-carboxamide] | 250 to 252 °C | < 500 nM
COc1cnc2c(c1)c(C(N)=O)c(-c1ccc(NS(=O)(=O)C(C)(C)C)cc1)n2C1CCCC1 [Cpd 359, 2-{4-[(tert-butylsulfonyl)amino]phenyl}-1-cyclopentyl-5-methoxy-1H-pyrrolo[2,3-b]pyridine-3-carboxamide] | 269 to 272 °C | < 500 nM
C[C@H](NS(=O)(=O)c1ccc(-c2c(C#N)c3cc(C(F)(F)F)cnc3n2C2CC2)nc1)C(F)(F)F [Cpd 360, 6-[3-cyano-1-cyclopropyl-5-(trifluoromethyl)-1H-pyrrolo[2,3-b]pyridin-2-yl]-N-[(2S)-1,1,1-trifluoropropan-2-yl]pyridine-3-sulfonamide] | 194 to 196 °C | < 500 nM
C[C@H](NS(=O)(=O)c1ccc(-c2c(C#N)c3cc([S+](C)[O-])cnc3n2C2CCC2)nc1)C(F)(F)F (stereo partly drawn) [Cpd 363, [3-cyano-1-cyclobutyl-2-(5-{[(2S)-1,1,1-trifluoropropan-2-yl]sulfamoyl}pyridin-2-yl)-1H-pyrrolo[2,3-b]pyridin-5-yl](methyl)sulfoniumolate] | 257 to 258 °C | < 500 nM
CSc1cnc2c(c1)c(C#N)c(-c1ccc(S(=O)(=O)NC3(C(F)(F)F)CC3)cc1)n2C1CCC1 [Cpd 364, 4-[3-cyano-1-cyclobutyl-5-(methylsulfanyl)-1H-pyrrolo[2,3-b]pyridin-2-yl]-N-[1-(trifluoromethyl)cyclopropyl]benzenesulfonamide] | 197 to 199 °C | < 500 nM
COc1cnc2c(c1)c(C#N)c(-c1ccc(S(=O)(=O)N[C@@H](C)C(F)(F)F)cn1)n2-c1cnccn1 [Cpd 365, 6-[3-cyano-5-methoxy-1-(pyrazin-2-yl)-1H-pyrrolo[2,3-b]pyridin-2-yl]-N-[(2S)-1,1,1-trifluoropropan-2-yl]pyridine-3-sulfonamide] | 220 to 225 °C | < 500 nM
Cc1cnc2c(c1)c(C#N)c(-c1ccc(S(=O)(=O)N[C@@H](C)C(F)(F)F)cn1)n2-c1ccncc1 [Cpd 368, 6-[3-cyano-5-methyl-1-(pyridin-4-yl)-1H-pyrrolo[2,3-b]pyridin-2-yl]-N-[(2S)-1,1,1-trifluoropropan-2-yl]pyridine-3-sulfonamide] | 243 to 245 °C | < 500 nM
CC(C)(C)NS(=O)(=O)c1ccc(-c2c(C#N)c3cc(Cl)cnc3n2C2CCC2)cc1 [Cpd 371, N-tert-butyl-4-(5-chloro-3-cyano-1-cyclobutyl-1H-pyrrolo[2,3-b]pyridin-2-yl)benzenesulfonamide] | 244 to 246 °C | < 500 nM
